Here are results for 15 compounds from PubChem BioAssay (NCI).

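Briefly, cells in 96-well plates were exposed to five compound concentrations for 48 h, and endpoints were estimated by linear interpolation. TGI marks complete inhibition of growth.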

Test systems include DU-145 prostate; EKVX NSCLC; HCC-2998 colon; HS 578T breast; LOX IMVI melanoma; NCI-H23 lung; NCI/ADR-RES ovarian; OVCAR-5 ovarian; RPMI-8226 leukemia; SF-268 CNS; SK-MEL-2 melanoma.
Assay in all cases: NCI anticancer screen, dose series, 48 h

Regarding `C=CCCCCOC1C=CC(OC(C)=O)C(COC(C)=O)O1` (stereo not given), the TGI with DU-145 prostate, in the assay with EKVX NSCLC, in the assay on HCC-2998 colon, in the assay on HS 578T breast, with LOX IMVI melanoma and in the assay on NCI-H23 lung was greater than 100 µM each time. Besides, the TGI in the assay on NCI/ADR-RES ovarian, in the assay with OVCAR-5 ovarian, with RPMI-8226 leukemia, in the assay on SF-268 CNS and in the assay with SK-MEL-2 melanoma was greater than 100 µM in each case.

With `O=C(CSc1nc2ccc(I)cc2c(=O)n1Cc1ccccc1)N/N=C/c1ccccc1`, the TGI in the assay with DU-145 prostate was greater than 100 µM; in the assay with EKVX NSCLC, greater than 100 µM; in the assay with HCC-2998 colon, greater than 100 µM; in the assay with HS 578T breast it was 9.09 µM; with LOX IMVI melanoma, greater than 100 µM; in the assay on NCI-H23 lung, 71.3 µM. Further, the TGI was 92 µM in the assay with NCI/ADR-RES ovarian; greater than 100 µM in the assay on OVCAR-5 ovarian; greater than 100 µM with RPMI-8226 leukemia; 32.4 µM with SF-268 CNS; 35.6 µM with SK-MEL-2 melanoma.

For `O=C(CC(=O)c1ccncc1)c1ccccc1`, the TGI in the assay with DU-145 prostate, in the assay on EKVX NSCLC, with HCC-2998 colon, with HS 578T breast, in the assay with LOX IMVI melanoma and with NCI-H23 lung was greater than 100 µM each time. In addition, the TGI was 69.3 µM in the assay with NCI/ADR-RES ovarian; greater than 100 µM in the assay with OVCAR-5 ovarian; greater than 100 µM in the assay on RPMI-8226 leukemia; greater than 100 µM with SF-268 CNS; greater than 100 µM in the assay with SK-MEL-2 melanoma.

As to `O=C1CCc2c3c(c4c([nH]c5ccccc54)c2CC1)C(=O)NC3=O`, the TGI in the assay with DU-145 prostate was 42.9 µM; in the assay on EKVX NSCLC, greater than 100 µM; in the assay with HCC-2998 colon, greater than 100 µM; with HS 578T breast it was greater than 100 µM; in the assay with LOX IMVI melanoma, 21 µM; in the assay with NCI-H23 lung it was greater than 100 µM. In addition, the TGI was greater than 100 µM in the assay on NCI/ADR-RES ovarian; greater than 100 µM in the assay with OVCAR-5 ovarian; 64.1 µM in the assay with RPMI-8226 leukemia; greater than 100 µM with SF-268 CNS; 17.1 µM in the assay with SK-MEL-2 melanoma.

Turning to `CCN(CC)CCN1c2ccccc2Sc2ccc3ccccc3c21`, the TGI came out at 12.3 µM with DU-145 prostate; 20.1 µM in the assay on EKVX NSCLC; 6.86 µM in the assay with HCC-2998 colon; 32.6 µM in the assay with HS 578T breast; 21.4 µM in the assay with LOX IMVI melanoma; 31.9 µM in the assay with NCI-H23 lung. For the same compound, the TGI in the assay with NCI/ADR-RES ovarian came out at 25.6 µM; with OVCAR-5 ovarian it was 23 µM; in the assay on RPMI-8226 leukemia, 10.7 µM; in the assay on SF-268 CNS it was 35.1 µM; in the assay on SK-MEL-2 melanoma it was 27.9 µM.

Turning to `CCOC(=O)c1ccc(N=C2SC(=S)N(c3ccc(F)cc3)C2=Nc2ccc(C(=O)OCC)cc2)cc1`, the TGI was greater than 100 µM in the assay on DU-145 prostate; 63.9 µM in the assay on EKVX NSCLC; greater than 80.5 µM with HCC-2998 colon; 91.7 µM in the assay with HS 578T breast; 17.9 µM in the assay with LOX IMVI melanoma; 44.2 µM in the assay with NCI-H23 lung. Besides, the TGI was 44.8 µM in the assay on NCI/ADR-RES ovarian; 38.7 µM in the assay with OVCAR-5 ovarian; 51.3 µM with RPMI-8226 leukemia; greater than 37.6 µM with SF-268 CNS; 35 µM in the assay with SK-MEL-2 melanoma.

For `Cc1c2c(c(C)c3c[n+](C)ccc13)Oc1ccccc1O2`, the TGI in the assay on DU-145 prostate was greater than 100 µM; in the assay with EKVX NSCLC it was greater than 100 µM; with HCC-2998 colon, 19.8 µM; in the assay on HS 578T breast it was 12.9 µM; with LOX IMVI melanoma, greater than 71.1 µM; in the assay with NCI-H23 lung, 40.4 µM. Also, the TGI in the assay with NCI/ADR-RES ovarian was greater than 100 µM; with OVCAR-5 ovarian it was greater than 31.6 µM; with RPMI-8226 leukemia, 12.7 µM; with SF-268 CNS it was 11.8 µM; in the assay on SK-MEL-2 melanoma, 41.2 µM.

Take `NS(=O)(=O)c1nnc(NC(=O)CCC(=O)O)s1`: the TGI in the assay with DU-145 prostate, in the assay with EKVX NSCLC, in the assay with HCC-2998 colon, in the assay on HS 578T breast, with LOX IMVI melanoma and in the assay on NCI-H23 lung was greater than 100 µM in each case. Moreover, the TGI with NCI/ADR-RES ovarian, in the assay with OVCAR-5 ovarian, in the assay with RPMI-8226 leukemia, with SF-268 CNS and in the assay on SK-MEL-2 melanoma was greater than 100 µM in each case.

As to `Cc1csc2c(P(=O)(OC(C)C)OC(C)C)c(-c3ccccc3)cn12`, the TGI in the assay with DU-145 prostate stood at 32.9 µM; in the assay on EKVX NSCLC, 32.5 µM; with HCC-2998 colon it was 28.5 µM; with HS 578T breast, 39.7 µM; with LOX IMVI melanoma, 27.3 µM; with NCI-H23 lung, 37.9 µM. Moreover, the TGI was found to be 36.2 µM in the assay on NCI/ADR-RES ovarian; 28.8 µM in the assay on OVCAR-5 ovarian; 40.7 µM in the assay with RPMI-8226 leukemia; 32 µM in the assay on SF-268 CNS; 32.5 µM in the assay with SK-MEL-2 melanoma.

As for `O=C(N/N=C(/COc1cccc(Cl)c1)N=Cc1ccncc1)c1ccncc1`, the TGI with DU-145 prostate, in the assay on EKVX NSCLC, with HCC-2998 colon, in the assay on HS 578T breast, in the assay with LOX IMVI melanoma and in the assay on NCI-H23 lung was greater than 100 µM throughout. In addition, the TGI in the assay with NCI/ADR-RES ovarian, in the assay on OVCAR-5 ovarian, in the assay on RPMI-8226 leukemia, with SF-268 CNS and in the assay with SK-MEL-2 melanoma was greater than 100 µM each time.

In the case of `COC(=O)C12CCC(C(=O)OC)(Cc3c(c4ccccc4n3S(=O)(=O)c3ccccc3)C1)C2=O` (stereo not given), the TGI in the assay on DU-145 prostate was greater than 100 µM; in the assay on EKVX NSCLC it was greater than 100 µM; in the assay on HCC-2998 colon it was greater than 100 µM; with HS 578T breast, greater than 84.7 µM; in the assay on LOX IMVI melanoma, greater than 100 µM; with NCI-H23 lung, greater than 100 µM. Besides, the TGI is greater than 100 µM in the assay on NCI/ADR-RES ovarian; greater than 94.6 µM in the assay on OVCAR-5 ovarian; greater than 100 µM in the assay on RPMI-8226 leukemia; greater than 100 µM with SF-268 CNS; greater than 100 µM in the assay on SK-MEL-2 melanoma.

On to `CCCCc1ccc(Nc2nc3c(ncn3C3OC(COC(C)=O)C(OC(C)=O)C3OC(C)=O)c(=O)[nH]2)cc1` (stereo not given), for which the TGI was 90.6 µM in the assay on DU-145 prostate; greater than 100 µM with EKVX NSCLC; 35.5 µM with HCC-2998 colon; 56 µM in the assay on HS 578T breast; 36 µM with LOX IMVI melanoma; 32.5 µM in the assay with NCI-H23 lung. The TGI was greater than 100 µM in the assay with NCI/ADR-RES ovarian; greater than 100 µM in the assay on OVCAR-5 ovarian; 48.9 µM in the assay with RPMI-8226 leukemia; 37.7 µM with SF-268 CNS; 31 µM in the assay on SK-MEL-2 melanoma.

For the compound `O=C1C(NS(=O)(=O)c2ccccc2)=C(n2cnc3ccccc32)C(=O)c2ccccc21`, the TGI with DU-145 prostate, in the assay with EKVX NSCLC, with HCC-2998 colon, in the assay on HS 578T breast, in the assay on LOX IMVI melanoma and in the assay with NCI-H23 lung was greater than 100 µM each time. The TGI in the assay with NCI/ADR-RES ovarian, with OVCAR-5 ovarian, in the assay with RPMI-8226 leukemia, with SF-268 CNS and in the assay on SK-MEL-2 melanoma was greater than 100 µM throughout.

As for `CCCCC1Cc2cc(O)ccc2-c2n1c1cc(O)ccc1[n+]2C` (stereo not given) (tested in a mixture with another compound), the TGI with DU-145 prostate was greater than 100 µM; with EKVX NSCLC it was greater than 100 µM; in the assay with HCC-2998 colon, greater than 100 µM; in the assay with HS 578T breast, greater than 51.4 µM; in the assay on LOX IMVI melanoma it was greater than 100 µM; with NCI-H23 lung, greater than 76.2 µM. The TGI was greater than 100 µM in the assay on NCI/ADR-RES ovarian; greater than 100 µM with OVCAR-5 ovarian; 75.1 µM with RPMI-8226 leukemia; greater than 59.5 µM with SF-268 CNS; greater than 100 µM in the assay on SK-MEL-2 melanoma.

As for `CS(C)(=O)=N/C=C\C(=O)C(Cl)(Cl)Cl`, the TGI with DU-145 prostate, with EKVX NSCLC, in the assay with HCC-2998 colon, in the assay on HS 578T breast, in the assay on LOX IMVI melanoma and in the assay with NCI-H23 lung was greater than 100 µM each time. The TGI with NCI/ADR-RES ovarian, with OVCAR-5 ovarian, in the assay with RPMI-8226 leukemia, with SF-268 CNS and with SK-MEL-2 melanoma was greater than 100 µM throughout.
